What was measured:
[1] = system: RPMI 8226 (B lymphocyte cell line, multiple myeloma); test: 48 hr CTG viability assay, RPMI 8226; type: cell-based; settings: Homo sapiens, RPMI-8226; 48 hr CTG; read-out: RPMI-8226 IC50
How it was run: (§1)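 Growth inhibition by compound over 48 h; IC50 (nM) derived from duplicate CellTiter-Glo luminescence readings across 0.0015–10 uM.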

[2] = system: A549 (human lung carcinoma cell line); test: Glo assay of A549 cells (Table 3; ProteasomeGlo plating scheme); type: cell-based; settings: Homo sapiens; A549 cells; read-out: PGLo A549
How it was run: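 Compound treatment lasts 105 minutes at 37° C. under 5% CO2. Suc-LLVY-Glo substrate premixed with detection reagent (60 min at room temperature) is then added directly to the cells, and luminescence after 10-15 min in the dark gives the IC50 in nM.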

[3] = system: Hs 746T (human gastric carcinoma cell line); test: 48 hr CTG viability assay, Hs 746T; type: cell-based; settings: Hs746T, 48 hr CTG, read-out: Hs 746T IC50
How it was run: as §1

[4] = target: T1, β5 subunit of the human constitutive proteasome (CPS) (Homo sapiens, UniProt P28074); test: β5 inhibition assay, human constitutive proteasome (Suc-LLVY-AMC); type: biochemical; settings: IC50 class, Suc-LLVY-AMC substrate
T1 construct: purchased Boston Biochem E-360
Method: The enzymatic activity of the β5 subunit of the human constitutive proteasome (CPS) is analyzed. In another assay, which differs from the assay of the human constitutive proteasome only in using the human immunoproteasome (IPS) the enzymatic activity of the β5 subunit of the human immunoproteasome (IPS) is analyzed. […] Inhibition is indicated as IC50 [nM] (“-”=not measured).

[5] = system: MM1 S (B lymphoblast cell line); test: 48 hr CTG viability assay, MM1S; type: cell-based; settings: Homo sapiens, 48 hr CTG, read-out: MM1S IC50
How it was run: as §1

[6] = target: T2, β5 subunit of the human immunoproteasome (IPS) (Homo sapiens, UniProt P28062); test: β5 inhibition assay, human immunoproteasome (Suc-LLVY-AMC); type: biochemical; settings: IC50 class, Suc-LLVY-AMC substrate
T2 construct: purchased Boston Biochem E-370
How it was run: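 β5 activity is read as liberated AMC fluorescence (355/460 nm) after 4 h dark reaction at RT with 22.6 μM Suc-LLVY-AMC, stopped by 1 μM bortezomib. Beforehand, 1 nM human IPS and compound sat 10 min at RT in HEPES pH 7.5 buffer containing NaCl, 0.02% SDS and DTT.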

IC50 [1] [nM]	IC50 [2] [nM]	IC50 [3] [nM]	IC50 [4] [nM]	IC50 [5] [nM]	IC50 [6] [nM]	SMILES
< 100	< 100	< 100	< 100	< 100	< 100	Cc1ccc2cc1CNC(=O)[C@H](CCc1ccccc1)NC(=O)[C@@H](NC(=O)N1CCc3cc(O)ccc31)CC(=O)N1CCCC(CCO2)C1 (stereo partly drawn) [Compound 705, 5-hydroxy-N-((9S,12S)-5^4-methyl-8,11,14-trioxo-9-phenethyl-4-oxa-7,10-diaza-1(3,1)-piperidina-5(1,3)-benzenacyclotetradecaphane-12-yl)indoline-1-carboxamide]
< 100	< 100	< 100	< 100	< 100	< 100	Cc1ccc2cc1CNC(=O)[C@H](CCc1ccccc1)NC(=O)[C@@H](NC(=O)CCN1CCCC1)CC(=O)N1CCCC(CCO2)C1 (stereo partly drawn) [Compound 668, N-((9S,12S)-5^4-methyl-8,11,14-trioxo-9-phenethyl-4-oxa-7,10-diaza-1(3,1)-piperidina-5(1,3)-benzenacyclotetradecaphane-12-yl)-3-(pyrrolidin-1-yl)propanamide]
< 100	< 100	< 100	< 100	< 100	< 100	Cc1ccc2cc1CNC(=O)[C@H](CCc1ccccc1)NC(=O)[C@@H](NC(=O)CCN1CCC3(CCCC3)CC1)CC(=O)N1CCCC(CCO2)C1 (stereo partly drawn) [Compound 613, N-((9S,12S)-5^4-methyl-8,11,14-trioxo-9-phenethyl-4-oxa-7,10-diaza-1(3,1)-piperidina-5(1,3)-benzenacyclotetradecaphane-12-yl)-3-(8-azaspiro[4.5]decan-8-yl)propanamide]
< 100	100 to 500	100 to 500	< 100	< 100	< 100	Cc1ccc2cc1CNC(=O)[C@H](CCc1ccccc1)NC(=O)[C@@H](NC1CC3C=CC1C3)CC(=O)N1CCCC(CCO2)C1 (stereo partly drawn) [Compound 711, (9S,12S)-12-(bicyclo[2.2.1]hept-5-en-2-ylamino)-5^4-methyl-9-phenethyl-4-oxa-7,10-diaza-1(3,1)-piperidina-5(1,3)-benzenacyclotetradecaphane-8,11,14-trione]
< 100	< 100	< 100	< 100	< 100	< 100	Cc1ccc2cc1CNC(=O)[C@H](CCc1ccccc1)NC(=O)[C@@H](NC(=O)CCOCCCc1ccccc1)CC(=O)N1CCCC(CCO2)C1 (stereo partly drawn) [Compound 612, N-((9S,12S)-5^4-methyl-8,11,14-trioxo-9-phenethyl-4-oxa-7,10-diaza-1(3,1)-piperidina-5(1,3)-benzenacyclotetradecaphane-12-yl)-3-(3-phenylpropoxy)propanamide]
< 100	< 100	< 100	< 100	< 100	< 100	Cc1ccc2cc1CNC(=O)[C@H](CCc1ccccc1)NC(=O)[C@@H](NC(=O)OC1CCCCC1)CC(=O)N1CCCC(CCO2)C1 (stereo partly drawn) [Compound 632, cyclohexyl ((9S,12S)-5^4-methyl-8,11,14-trioxo-9-phenethyl-4-oxa-7,10-diaza-1(3,1)-piperidina-5(1,3)-benzenacyclotetradecaphane-12-yl)carbamate]
< 100	< 100	< 100	< 100	< 100	< 100	Cc1ccc2cc1CNC(=O)[C@H](CCc1ccccc1)NC(=O)[C@@H](NC(=O)CCNS(=O)(=O)c1ccc(OCC3CCCCC3)cc1)CC(=O)N1CCCC(CCO2)C1 (stereo partly drawn) [Compound 672, 3-((4-(cyclohexylmethoxy)phenyl)sulfonamido)-N-((9S,12S)-5^4-methyl-8,11,14-trioxo-9-phenethyl-4-oxa-7,10-diaza-1(3,1)-piperidina-5(1,3)-benzenacyclotetradecaphane-12-yl)propanamide]
< 100	< 100	< 100	< 100	< 100	< 100	Cc1ccc2cc1CNC(=O)[C@H](CCc1ccccc1)NC(=O)[C@@H](NC(=O)N1Cc3ccc(N)cc3C1)CC(=O)N1CCCC(CCO2)C1 (stereo partly drawn) [Compound 687, 5-amino-N-((9S,12S)-5^4-methyl-8,11,14-trioxo-9-phenethyl-4-oxa-7,10-diaza-1(3,1)-piperidina-5(1,3)-benzenacyclotetradecaphane-12-yl)isoindoline-2-carboxamide]
< 100	< 100	< 100	< 100	< 100	< 100	CCN1CCC(F)(C(=O)N[C@H]2CC(=O)N3CCCC(CCOc4ccc(C)c(c4)CNC(=O)[C@H](CCc4ccccc4)NC2=O)C3)CC1 (stereo partly drawn) [Compound 592, 1-ethyl-4-fluoro-N-((9S,12S)-5^4-methyl-8,11,14-trioxo-9-phenethyl-4-oxa-7,10-diaza-1(3,1)-piperidina-5(1,3)-benzenacyclotetradecaphane-12-yl)piperidine-4-carboxamide]
< 100	< 100	< 100	< 100	< 100	< 100	Cc1ccc2cc1CNC(=O)[C@H](CCc1ccccc1)NC(=O)[C@@H](NC(=O)C(C)(C)C(F)(F)F)CC(=O)N1CCCC(CCO2)C1 (stereo partly drawn) [Compound 646, 3,3,3-trifluoro-2,2-dimethyl-N-((9S,12S)-5^4-methyl-8,11,14-trioxo-9-phenethyl-4-oxa-7,10-diaza-1(3,1)-piperidina-5(1,3)-benzenacyclotetradecaphane-12-yl)propanamide]
< 100	< 100	< 100	< 100	< 100	< 100	Cc1ccc2cc1CNC(=O)[C@H](CCc1ccccc1)NC(=O)[C@@H](NC(=O)Cc1ccc3ncccc3c1)CC(=O)N1CCCC(CCO2)C1 (stereo partly drawn) [Compound 586, N-((9S,12S)-5^4-methyl-8,11,14-trioxo-9-phenethyl-4-oxa-7,10-diaza-1(3,1)-piperidina-5(1,3)-benzenacyclotetradecaphane-12-yl)-2-(quinolin-6-yl)acetamide]
< 100	< 100	< 100	< 100	< 100	< 100	Cc1ccc2cc1CNC(=O)[C@H](CCc1ccccc1)NC(=O)[C@@H](NC(=O)CCNCc1ccc(OCC3CCCCC3)cc1)CC(=O)N1CCCC(CCO2)C1 (stereo partly drawn) [Compound 706, 3-((4-(cyclohexylmethoxy)benzyl)amino)-N-((9S,12S)-5^4-methyl-8,11,14-trioxo-9-phenethyl-4-oxa-7,10-diaza-1(3,1)-piperidina-5(1,3)-benzenacyclotetradecaphane-12-yl)propanamide]
< 100	100 to 500	< 100	< 100	< 100	< 100	Cc1ccc2cc1CNC(=O)[C@H](CCc1ccccc1)NC(=O)[C@@H](NC(=O)CCNCC1CCCC1)CC(=O)N1CCCC(CCO2)C1 (stereo partly drawn) [Compound 677, 3-((cyclopentylmethyl)amino)-N-((9S,12S)-5^4-methyl-8,11,14-trioxo-9-phenethyl-4-oxa-7,10-diaza-1(3,1)-piperidina-5(1,3)-benzenacyclotetradecaphane-12-yl)propanamide]
< 100	< 100	< 100	< 100	< 100	< 100	Cc1ccc2cc1CNC(=O)[C@H](CCc1ccccc1)NC(=O)[C@@H](NC(=O)CCNC1CCCC1)CC(=O)N1CCCC(CCO2)C1 (stereo partly drawn) [Compound 675, 3-(cyclopentylamino)-N-((9S,12S)-5^4-methyl-8,11,14-trioxo-9-phenethyl-4-oxa-7,10-diaza-1(3,1)-piperidina-5(1,3)-benzenacyclotetradecaphane-12-yl)propanamide]

SMILES	IC50 [1] [nM]	IC50 [2] [nM]	IC50 [3] [nM]	IC50 [4] [nM]	IC50 [5] [nM]	IC50 [6] [nM]
Cc1ccc2cc1CNC(=O)[C@H](CCc1ccccc1)NC(=O)[C@@H](NC(=O)C1CC3CCC(C1)N3C(=O)OC(C)(C)C)CC(=O)N1CCCC(CCO2)C1 (stereo partly drawn) [Compound 605, tert-butyl 3-(((9S,12S)-5^4-methyl-8,11,14-trioxo-9-phenethyl-4-oxa-7,10-diaza-1(3,1)-piperidina-5(1,3)-benzenacyclotetradecaphane-12-yl)carbamoyl)-8-azabicyclo[3.2.1]octane-8-carboxylate]	< 100	< 100	100 to 500	< 100	< 100	< 100

— US20240415819A1, “MACROCYCLIC COMPOUNDS AS PROTEASOME SUBUNIT BETA TYPE-5 INHIBITORS” (Lead Discovery Center GmbH, priority 2021, published 2024)
